Columns and labels:
[1] = tested on: K7M2 OS cell line; assay: 2D growth / cytotoxicity by MTT, K7M2; format: cell-based, mouse
Description: The number of viable cells present in 2D culture was determined by MTT as previously reported. Briefly, cells were plated in 96-well plates at 2,000 cells/well and incubated at 37° C. for 24 h. […] After 72 h, MTT reagent (20 L/well of a 5 mg/mL stock solution in sterile water; Sigma, St. Louis, MO) was added to each well and the plate was incubated at 37° C. for 2 h. DMSO ([…]) was then added to each well to solubilize the formazan crystals.
(§1) The resulting absorbance was measured at 490 nm via plate reader (Molecular Devices, San Jose, CA). DMSO (0.1%) was used as vehicle control, while 20 μM rapamycin was used as a positive cell-kill control. The experimental conditions were conducted in triplicate and each experiment was repeated three times. Regression lines and IC50's were calculated using a four-parameter variable slope nonlinear fit in GraphPad Prism.

[2] = tested on: MG63.3 OS cell line; assay: in vitro 3D BME assay with MG63.3 OS cell line; format: cell-based, human; conditions: MG63.3, Day 6 MTS, at or below 1 μM
Source text: (§2) 3D basement membrane extract (BME) assay was developed at the NCI Barkan (D. Barkan et al. 2008; Dalit Barkan and Green 2011; Hen and Barkan 2020). BME is purified from Engelbreth-Holm-Swarm (EHS) tumor, primarily made up of laminin, collagen IV, entactin, and heparin sulfate proteoglycans (Cultrex Reduced Growth Factor Basement Membrane Extract, PathClear n.d.), which allows it to more accurately reflect the 3D extracellular environment in the body.
(§3) Initially >150 selected therapeutic agents were tested on BME based on the likelihood for either a positive effect or a […] negative effect (as negative controls). […] These therapeutic agents were also tested in dose response (as broad as 1 pM-100 μM) for 2D cytotoxicity (MTT) and the IC50 was calculated. Where required, the hits from the initial screen were also further characterized at additional doses <100 nM in order to further determine the relative selectivity compared to the 2D IC50.
(§4) The influence of drug exposure on the metastatic phenotype was assessed in an in vitro assay of ME and escape from dormancy using a 3D BME assay as previously reported, which was adapted for use with OS cells.
(§5) Cultrex® PathClear, Reduced Growth Factor Basement Membrane Extract (BME—Bio-Techne, Minneapolis, MN) was added ([…]) to a 96-well plate and allowed to gel by incubating at 37° C. for ≥30 min. Cells were harvested, washed with DMEM (no glucose, no FBS, Gibco, Grand Island, NY) and centrifuged at 1500 g×5 mins. The media was aspirated and the remaining cell pellet flicked for about 10 s to ensure disaggregation.
(§6) Cells were diluted in assay media containing 2% BME, resuspended vigorously and 150 μL of the cell suspension was added on top of the gelled 3D BME layer. […] Cell numbers were determined in control vehicle (cells in media+0.1% DMSO), or treated wells and were measured on the indicated days by addition of 20 μL/well of MTS reagent (Cell Titer 96 Aqueous One, Promega, Madison, WI), followed by incubation at 37° C. for 2 h and absorbance measurements at 490 nm via plate reader (Molecular Devices, San Jose CA).
(§7) All conditions were conducted in quadruplicate and each experiment was carried out at least 3 separate times. All comparisons were made between treatment and vehicle control at concordant time points. Statistical analyses and non-linear regressions were derived using GraphPad Prism statistical software.

[3] = target: JAK1 (Homo sapiens, UniProt P23458); conditions: cited from earlier work
[4] = tested on: K7M2 OS cell line; assay: in vitro 3D BME assay with K7M2 OS cell line; format: cell-based, mouse; conditions: K7M2, Day 6 MTS, at or below 1 μM
Source text: as §2, §3, §4, §5, §6, §7

[5] = tested on: MG63.3 OS cell line; assay: 2D growth / cytotoxicity by MTT, MG63.3; conditions: MG63.3, MTT, exposures up to 1 μM / assessed exposures
Description: The number of viable cells present in 2D culture was determined by MTT as previously reported. Briefly, cells were plated in 96-well plates at 2,000 cells/well and incubated at 37° C. for 24 h. After 24 h, the media was replaced with fresh media containing drugs at the desired concentrations (10 pM-10 μM) and incubated at 37° C. for 72 h. After 72 h, MTT reagent (20 L/well of a 5 mg/mL stock solution in sterile water; Sigma, St. Louis, MO) was added to each well and the plate was incubated at 37° C. for 2 h. DMSO ([…]) was then added to each well to solubilize the formazan crystals.
as §1

Chain of JAK1 (P23458 whole entry, species assumed): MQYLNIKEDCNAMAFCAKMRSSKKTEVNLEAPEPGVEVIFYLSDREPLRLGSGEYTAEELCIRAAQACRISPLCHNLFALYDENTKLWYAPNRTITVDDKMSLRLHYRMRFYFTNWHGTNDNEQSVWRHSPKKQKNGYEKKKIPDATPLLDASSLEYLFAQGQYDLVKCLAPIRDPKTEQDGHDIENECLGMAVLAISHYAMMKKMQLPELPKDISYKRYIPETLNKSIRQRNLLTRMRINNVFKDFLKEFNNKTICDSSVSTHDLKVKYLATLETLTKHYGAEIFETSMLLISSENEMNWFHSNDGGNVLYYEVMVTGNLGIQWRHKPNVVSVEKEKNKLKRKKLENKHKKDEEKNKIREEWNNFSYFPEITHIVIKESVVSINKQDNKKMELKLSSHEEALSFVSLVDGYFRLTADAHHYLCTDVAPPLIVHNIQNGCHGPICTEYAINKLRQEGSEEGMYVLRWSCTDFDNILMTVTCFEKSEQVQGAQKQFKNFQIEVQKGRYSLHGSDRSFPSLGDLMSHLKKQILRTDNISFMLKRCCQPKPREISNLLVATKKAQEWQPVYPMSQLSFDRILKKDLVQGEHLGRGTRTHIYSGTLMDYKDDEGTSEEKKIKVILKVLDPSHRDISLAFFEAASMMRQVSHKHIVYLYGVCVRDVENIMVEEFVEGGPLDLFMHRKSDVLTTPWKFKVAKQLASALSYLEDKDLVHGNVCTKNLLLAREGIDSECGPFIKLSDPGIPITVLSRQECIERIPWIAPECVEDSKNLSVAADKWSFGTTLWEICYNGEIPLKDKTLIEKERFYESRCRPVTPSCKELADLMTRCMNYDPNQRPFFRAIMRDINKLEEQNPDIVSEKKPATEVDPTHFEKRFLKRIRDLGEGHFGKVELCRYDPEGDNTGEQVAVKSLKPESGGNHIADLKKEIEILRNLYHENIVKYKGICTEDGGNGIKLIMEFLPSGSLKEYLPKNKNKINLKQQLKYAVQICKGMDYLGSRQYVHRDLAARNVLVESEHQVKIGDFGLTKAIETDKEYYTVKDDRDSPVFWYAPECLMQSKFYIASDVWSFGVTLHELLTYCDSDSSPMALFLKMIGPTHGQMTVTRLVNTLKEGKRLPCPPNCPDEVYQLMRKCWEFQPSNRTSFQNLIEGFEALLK

For `CNS(=O)(=O)C[C@H]1CC[C@H](N(C)c2ncnc3[nH]ccc23)CC1` [oclacitinib], which “non-cytotoxic drug exposures in 2D” value ([1]; K7M2, MTT 72 h, 10 pM-100 μM) is on record?
Its value is “below 1 μM”.

What about the “effect on cell number in 2D monolayer” value ([1]; K7M2, MTT, exposures up to 1 μM) of the same compound?
Its value is “minimal inhibition of OS cell number”.

And the “effect on metastatic phenotype / 3D growth in 3D BME (words)” value [2]?
Its value is “did not inhibit MG63.3 cells at any dose”.

What about the “effect on metastatic phenotype / 3D growth in 3D BME (words)” value ([2]; listed as Oclacitinib) of the same compound?
Its value is “no significant effect”.

And the “inhibitory action against JAK1 relative to JAK2” value [3]?
Its value is 1.8 times.

And the “inhibitory action against JAK1 relative to JAK3” value [3]?
Its value is 9.9 times.

What about the “effect on metastatic phenotype / 3D growth in 3D BME (words)” value [4] of the same compound?
Its value is “statistically significant but very minimal inhibition”.

What about the “effect on metastatic phenotype / 3D growth in 3D BME (words)” value ([4]; listed as Oclacitinib) of the same compound?
Its value is “statistically significant but very small level of inhibition”.

What about the “effect on cell number in 2D monolayer” value [5] of the same compound?
Its value is “minimal inhibition of OS cell number”.
